Results on two molecules are retold here after paper PMC11043318, “Quantification of biochemical PSA dynamics after radioligand therapy with [^177Lu]Lu-PSMA-I&T using a population pharmacokinetic/pharmacodynamic model” (EJNMMI Physics, 2024).

SMILES strings stand for the structures. Values joined by “and” are separate entries in the source; they are usually repeats but may differ in a detail not shown here. Identical values can stand only once.

The conditions of series [1]: cited from earlier work. From the text:
Comparison of rate constants for drug transfer between different compartments is hampered by absolute radioactivity amounts being relatively small in tumors compared to organs (due to volume differences between these compartments). […] Though differences are small, these might be caused by different treatment intervals (two-week instead of six-week interval) for most patients.

Series [2] deals with serum prostate-specific antigen (PSA). Briefly: Population PKPD model of PSA dynamics after therapy. The series is classed as in vivo, human. Particulars: estimate (RSE%). From the text: Data from patients treated in our hospital with [^177Lu]Lu-PSMA-I&T between September 2019 and January 2023 were collected for population PK model development. This retrospective data collection was approved by the Institutional Review Board of the Netherlands Cancer Institute (IRBd21288). Baseline patient characteristics were collected, such as age, body weight, height and serum creatinine clearance. In addition, individual PSA concentrations were collected and used as input for the PD model. As pre-treatment PSA value, only the last observation prior to [^177Lu]Lu-PSMA-I&T treatment (< 6 weeks) was included in the analysis, to avoid taking into account PSA changes due to other previous treatments. For the same reason, PSA observations after the last [^177Lu]Lu-PSMA-I&T administration were collected up to start of a new treatment.
A sequential modelling approach was used for PKPD model development, where an additional compartment was considered to describe PSA concentrations over time. Baseline PSA concentrations were estimated as a typical population value with an estimated IIV on this population baseline value. […] For Edrug, a linear function, an Emax function and a sigmoid Emax model were evaluated (see Eqs. 9–11, respectively).9 Edrug=kD∗Ctumor 10 Edrug=EMAX∗Ctumor/EC50+Ctumor 11 Edrug=EMAX∗Ctumorγ/EC50γ+Ctumorγ where kD is a drug-induced effect, Ctumor is the estimated concentration in the tumor compartment (taking into account radioactive decay), EMAX is the maximal drug induced effect of [^177Lu]Lu-PSMA-I&T on PSA, EC50 is the [^177Lu]Lu-PSMA-I&T concentration at which half of the maximum drug-induced effect on PSA occurs and γ is a hill coefficient (that was both estimated and fixed during model development).
Therefore, a delay of the PD effect after administration of [^177Lu]Lu-PSMA-I&T (Edelayed) was evaluated using an effect compartment with a linear drug effect (Eq. 8) on the PSA compartment. This delayed effect was assessed both solely as well as additional to the direct effect (Edrug). […]

Series [3] in a line: Population pharmacokinetic model from post-administration SPECT/CT data. The series is classed as in vivo, human.
For series [4] the following is noted: cited from earlier work. From the text: Though differences are small, these might be caused by different treatment intervals (two-week instead of six-week interval) for most patients.
The source holds these as a separate data set.

The subject of series [5] is serum prostate-specific antigen (PSA). In words: Tumor exposure (AUC) threshold for PSA response, linear regression. The conditions noted are these: Bayesian estimated tumor AUC of first two cycles. It counts as in vivo, human. From the text:
As an exploratory analysis, the final population PKPD model was used to assess a potential tumor exposure threshold required to achieve treatment response. The individually (Bayesian) estimated area under the curve (AUC) based on the first two treatment cycles was related to the change in PSA (%) for each patient. Since PSA is a continuous response measure and there is no defined moment to determine response, two endpoints for response were considered: nadir PSA and the last measured PSA value after the first two treatment cycles. A linear regression was performed to assess the relationship and was subsequently used to define tumor AUC thresholds required to achieve treatment response (≥ 50% decrease in PSA). Formal statistical testing was not possible, since individual (Bayesian) estimates of tumor exposure cannot be considered independent variables.

Setting [6] is: fraction of tumor uptake rate in cycle 1, estimate (RSE%).
Where [7] appears, read: population PK model, covariate exponent, estimate (RSE%).
The mark [8] stands for this setting: population PK model, estimate (RSE%).

With `O=C(O)CC[C@H](NC(=O)N[C@@H](CCCCNC(=O)[C@H](Cc1ccc2ccccc2c1)NC(=O)[C@H]1CC[C@H](CNC(=O)CN2CCN(CC(=O)O)CCN(CC(=O)O)CCN(CC(=O)O)CC2)CC1)C(=O)O)C(=O)O` [[^177Lu]Lu-PSMA-617, metal not drawn], in series [1], the “Initial volume of distribution” value is listed as 22 L and the Reported clearance is 2.04 L/h. In series [1] (population PK model), the Excretion rate was 0.288 h⁻¹.

`O=C([O-])CC[C@H](NC(=O)N[C@@H](CCCCNC(=O)CCCCCCC(=O)NCCCC[C@@H](NC(=O)[C@@H](Cc1ccccc1)NC(=O)[C@@H](Cc1ccc(O)c(I)c1)NC(=O)CC[C@H](C(=O)[O-])N1CCN(CC(=O)[O-])CCN(CC(=O)[O-])CCN(CC(=O)[O-])CC1)C(=O)[O-])C(=O)[O-])C(=O)[O-].[177Lu+3].[H+].[H+].[H+].[H+].[H+]` [[^177Lu]Lu-PSMA-I&T]: the “Rate constant effect compartment (ke0)” value in series [2] (first-order delay to effect compartment) is given as 0.00128 (13.1%) h^−1. Moreover, the “Delayed drug-induced effect (kD, delay)” value in series [2] (linear effect from effect compartment on PSA) is 0.0000328 (17.4%) L·day^−1·MBq^−1. Further, the “Direct drug-induced effect (kD, direct)” value in series [2] (linear effect of tumor concentration on PSA elimination) is given as 0.00335 (40.1%) L·day^−1·GBq^−1. Moreover, in series [3] (all 76 patients), the “Tumor uptake rate in cycle 2 compared to cycle 1” value is 73% and 73.1%; the “Tumor uptake rate in cycle 3 compared to cycle 1” value is 50% and 49.8%; the “Tumor uptake rate in cycle 4–7 compared to cycle 1” value was 44% and 43.6%. In series [3] (cycle effect tested on k12), the “Salivary gland uptake in cycle three compared to cycle one” value is 98.1% and the “Salivary gland uptake in cycle two compared to cycle one” value is given as 84.6%. Besides, the “Estimated half-life, tumors” value in series [3] (decay-corrected data) is ~46 h. Further, in series [3] (setting [6]), the “Cycle 2 on k14 (fractional change)” value is listed as 0.731 (8.1%), the “Cycle 3 on k14 (fractional change)” value is 0.498 (11.3%) and the “Cycle 4–7 on k14 (fractional change)” value is reported as 0.436 (11.6%). Further, in series [3] (from power covariate 1.08 on k14), the “Increase of tumor uptake rate with a two-times higher tumor volume” value is 2.11 fold. Further, in series [3] (only '2 × 2 – repeated after twelve weeks' scheme), the “Tumor uptake rate in cycle 2 compared to cycle 1, excluding '4 × 6' patients” value is on record as 82.9%. Also, in series [3] (population PK model, 76 mCRPC patients, ~7.4 GBq per cycle, SPECT/CT, estimate (RSE%)), the “k10 (renal excretion rate constant from central compartment)” value is recorded as 0.253 (5.2%) h^−1. Further, in series [3] (population PK model, 76 mCRPC patients, estimate (RSE%)), the “k12 (uptake rate central to salivary glands)” value is on record as 0.0105 (9.2%) h^−1. The same molecule registered a Renal clearance in series [3] (population PK model, mCRPC patients) of 2.61 L/h. Besides, in series [3] (setting [7]), the “Tumor volume on k12 (power covariate function)” value was 0.0910 (30.0%) and the “Tumor volume on k14 (power covariate function)” value is 1.08 (7.5%). For the same molecule, in series [3] (setting [8]), the “k13 (uptake rate central to kidneys)” value is reported as 0.0321 (6.9%) h^−1, the “k14 (uptake rate central to tumors)” value was 0.00967 (9.9%) h^−1, the “k15 (central to remaining tissue)” value is recorded as 0.275 (6.8%) h^−1 and the “k21 (salivary glands to central)” value is given as 0.0629 (6.3%) h^−1. Further, in series [3] (setting [8]), the “k31 (kidneys to central)” value is 0.0625 (5.4%) h^−1, the “k41 (tumors to central)” value was 0.0150 (3.4%) h^−1 and the “k51 (remaining tissue to central)” value was 0.0247 (6.5%) h^−1. The “Estimated half-life, organs-at-risk” value in series [3] (salivary glands and kidneys, decay-corrected data) is listed as “approximately 11 h”. The “BMAX compartment 2 (maximum binding capacity, salivary glands)” value in series [3] (saturable uptake into salivary glands, estimate (RSE%)) was 134 (15.5%) MBq. Moreover, in series [4], the “Average tumor absorbed dose, fourth cycle relative to first cycle” value is reported as 68%; the “Average tumor absorbed dose, second cycle relative to first cycle” value is reported as 94%; the “Average tumor absorbed dose, third cycle relative to first cycle” value is reported as 77%. For the same molecule, in series [4] (n = 5–15 patients per cycle), the “Average tumor absorbed dose, first cycle” value was 3.5 Gy/GBq; the “Average tumor absorbed dose, fourth cycle” value is recorded as 2.4 Gy/GBq; the “Average tumor absorbed dose, second cycle” value is reported as 3.3 Gy/GBq; the “Average tumor absorbed dose, third cycle” value is reported as 2.7 Gy/GBq. Moreover, in series [5], the “Threshold tumor AUC for ≥ 50% decrease in PSA, last measured PSA after first two cycles” value is on record as 1188 MBq·h/mL and the “Threshold tumor AUC for ≥ 50% decrease in PSA, nadir PSA as outcome” value is given as 709.5 MBq·h/mL.
